pIC50: −log10 of the molar value. Read-outs that look alike come from different tables or passages of the source.
Key:
[1] = test system: Lewis rats; assay: Acute EAE in Lewis rats: Example 7 alone and combined with interferon-β (In Vivo Example 1); settings: Lewis rat acute EAE, Example 7 10 mg/kg p.o., interferon-β 1×10^6 Units/rat s.c., once daily 7-16 dpi
Description: Female Lewis rats (200+10 g) obtained from Charles River, Kent, UK, were housed in pairs under environmentally controlled conditions (6:00 a.m.-6:00 p.m. light/dark cycle; 22-24° C.; 45-55% humidity) and allowed free access to food and water. Experimental groups consisted of 8 animals.
Rats were immunised in each hind foot with 15 μl of inoculum containing […] guinea pig myelin basic protein (MBP, prepared by the method of Dunkley and Carnegie (1974); final concentration 2 mg/ml), emulsified in Freund's complete adjuvant (CFA; Sigma, UK) containing Mycobacterium tuberculosis H37Ra (final concentration 5.5 mg/ml; Difco Laboratories, UK).
Animals were weighed and monitored daily and clinical disease scored as (0) no clinical signs; (1) flaccid tail and weight loss; (2) hind limb hypotonia with further weight loss; (3) complete hind limb paralysis; (4) paraplegia and (5) death. […] During the period of compound administration (7-16 days post immunisation; dpi) animals were scored 15 h after injection of vehicle, compound of example 7 or interferon-β to avoid any acute effect of treatment on disease score.
3-(2-Cyanophenyl)-1-phenyl-5-(2-pyridyl)-1,2-dihydropyridin-2-one; (example 7) was suspended in 0.5% methyl cellulose (MC) solution to obtain a compound concentration of 4 mg/ml. Interferon-β was dissolved in PBS to obtain a compound concentration of 5×10^6 Units/ml. Rats were dosed once daily (9 a.m.) on days 7 to 16 post immunisation with either vehicle (methyl cellulose p.o. and PBS s.c.), the compound alone in the dose of 10 mg/kg (p.o. plus vehicle PBS s.c), interferon-β alone in the dose of 1×10^6 Units/rat (s.c. plus methyl cellulose p.o.) or example 7 in the dose of 10 mg/kg (p.o) combined with interferon-β in the dose of 1×10^6 Units/rat (s.c.).

[2] = test system: AMPA receptor;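 also: neurons cultured at least 8 to 10 days atop an astrocyte layer in 96-well plates, calcium entry read as the change in Fura2 fluorescence ratio at 340/380 nm excitation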
Description: Cerebral cortex was cut out from the brain of rat of gestational 18 days and treated with trypsin and DNase to disperse the cells. The cells were flown by MEM containing 10% of serum, sown in a culture bottle and astrocytes were proliferated. The astrocytes were re-dispersed by trypsin and sown in a 96-well plate. After incubation for one week, it was confirmed that the astrocytes covered all over the bottom and then the nerve cells of cerebral cortex which was dispersed by the above method were sown thereupon. After incubation for 24 hours, the medium was changed, the incubation was carried out for one week and, after that, the medium was changed to that containing 1 μM of MK-801. Nerve cells which were incubated for not shorter than 8 to 10 days were used.
Calcium influx into the cells was measured using Fura2-AM which was a calcium-sensitive fluorescent dye. It was treated in a medium containing Fura2-AM for 1 hour, incorporated into the cells, exchanged to a Tyrode solution containing 1 μM MK-801 and stimulation was carried out using 2 μM AMPA. Change in the amount of calcium flown into the cells were measured as the change in the fluorescent intensity at the exciting wave length of 340/380 nm.

[3] = test system: Female Lewis rats; assay: Experimental autoimmune encephalomyelitis model (Test Example 10); type: in vivo, rat; settings: p.o. 5, 10 and 20 mg/kg, 10-16 dpi
Description: Female Lewis rats (205±10 g) obtained from Charles River, Kent UK, were housed in pairs under environmentally controlled conditions (6:00a.m.-6:00p.m. light/dark cycle; 22-24° C.; 45-55% humidity) and allowed free access to food and water. Experimental groups consisted of 9-12 animals. Rats were immunised in each hind foot with 20-50 μl of inoculum containing 50 μg guinea pig myelin basic protein (MBP; final concentration 2 mg/ml), emulsified in Freund's complete adjuvant (CFA; Sigma, UK) containing Mycobacterium tuberculosis H37Ra (final concentration 5.5 mg/ml; Difco Laboratories, UK). Animals were weighed and monitored daily and clinical disease scored as (0) no clinical signs; (1) flaccid tail and weight loss; (2) hind limb hypotonia with further weight loss; (3) complete hind limb paralysis; (4) paraplegia and (5) death. […] During the period of compound administration (10-16 days post immunisation; dpi) animals were scored 15 h after injection of vehicle or compound to avoid any acute effect of treatment on disease score. Compounds were dissolved/suspended in 0.5% methyl cellulose using a hand held Polytron homogeniser (PT1200; 2 min). Rats were dosed p.o. with either methyl cellulose vehicle (2.5 ml/kg) or compound at 5, 10 and 20 mg/kg.

[4] = test system: male mice of ddy strain; assay: Anticonvulsant action induced by AMPA (Test Example 2); type: in vivo; settings: 25 mg/kg orally, AMPA 2 nmole/5 μl/minute/mouse into lateral ventricle 30 minutes or 1 hour after dosing
Description: A test compound was suspended in a 0.5% methyl cellulose solution or in sesame oil and was orally administered (25 mg/kg) to male mice of ddy strain. After 30 minutes or 1 hour from the oral administration, AMPA was continuously injected (2 nmole/5 μl/minute/mouse) into lateral ventricle to induce the convulsions. The effect was judged by a time-extending action until the convulsion takes place by a continuous injection of AMPA.

[5] = primary culture of rat embryo cerebral cortex nerve cells, Fura2-AM, 2 μM AMPA, 1 μM MK-801
[6] = suppression of AMPA-induced calcium influx into nerve cells, Table 2

SMILES | pIC50 [2, 5] | Effect on EAE vs vehicle-administered group [3] | Anticonvulsant action (time-extending action until convulsion by continuous AMPA injection) [4] | also measured
N#Cc1ccccc1-c1cc(-c2ccccn2)cn(-c2ccccc2)c1=O [Example 7, 3-(2-Cyanophenyl)-1-phenyl-5-(2-pyridyl)-1,2-dihydropyridin-2-one] | 7.00 | superior effect to the vehicle-administered group | significant anticonvulsant action | Duration (days) ([1]; mean and range, n=8): 3.0 (0-4) days; Onset (d.p.i.) ([1]; mean and range, n=8 (n=1 for the combination)): 11.8 (11-15) d.p.i.; Effect on disease progression (paralysis, disease score, onset, duration) during EAE, in words ([1]; n=8/group): significantly delayed disease onset, shortened disease duration and reduced peak and cumulative disease score; Peak Disease Score ([1]; clinical score 0-5, mean and range, n=8): 1.8 (0-3); Cumulative Disease Score ([1]; summation of individual daily disease scores, mean and range, n=8): 4.8 (0-10); Weight Loss (%) ([1]; weight on 18 dpi as percent of maximum weight before disease onset, mean and range, n=8): 17 (10-23) %
N#Cc1ccccc1-c1cc(-c2ccccn2)cn(-c2cccc(N)c2)c1=O [Example 9, 3-(2-Cyanophenyl)-5-(2-pyridyl)-1-(3-aminophenyl)-1,2-dihydropyridin-2-one] | 7.52 | – | significant anticonvulsant action | –
CN(C)c1cccc(-n2cc(-c3ccccn3)cc(-c3ccccc3C#N)c2=O)c1 [Example 12, 3-(2-Cyanophenyl)-5-(2-pyridyl)-1-(3-dimethylaminophenyl)-1,2-dihydropyridin-2-one] | 7.00 | – | significant anticonvulsant action | –
N#Cc1ncccc1-c1cc(-c2ccccn2)cn(-c2ccccc2)c1=O [Example 16, 3-(2-Cyano-3-pyridyl)-5-(2-pyridyl)-1-phenyl-1,2-dihydropyridin-2-one] | 7.00 | – | significant anticonvulsant action | –
N#Cc1ccccc1-c1cc(-c2ccccn2)cn(-c2cccnc2)c1=O [Example 32, 3-(2-Cyanophenyl)-5-(2-pyridyl)-1-(3-pyridyl)-1,2-dihydropyridin-2-one] | 7.00 | superior effect to the vehicle-administered group | significant anticonvulsant action | –
N#Cc1ccccc1-c1cc(-c2ccccc2)cn(-c2ccccc2)c1=O [Example 41, 3-(2-Cyanophenyl)-1,5-diphenyl-1,2-dihydropyridin-2-one] | 7.10 | – | significant anticonvulsant action | –
O=c1c(-c2cccnc2F)cc(-c2ccccn2)cn1-c1ccccc1 [Example 76, 3-(2-Fluoro-3-pyridyl)-5-(2-pyridyl)-1-phenyl-1,2-dihydropyridin-2-one] | – | superior effect to the vehicle-administered group | significant anticonvulsant action | –
N#Cc1cccnc1-c1cc(-c2ccccn2)cn(-c2ccccc2)c1=O [Example 78, 3-(3-Cyano-2-pyridyl)-5-(2-pyridyl)-1-phenyl-1,2-dihydropyridin-2-one] | 5.85 | – | significant anticonvulsant action | –
N#Cc1ccccc1-c1cc(-c2ccccn2)cn(-c2ccc(F)cc2)c1=O [Example 91, 3-(2-Cyanophenyl)-5-(2-pyridyl)-1-(4-fluorophenyl)-1,2-dihydropyridin-2-one] | 7.30 | – | significant anticonvulsant action | –
N#Cc1sccc1-c1cc(-c2ccccn2)cn(-c2cccnc2)c1=O [Example 137, 3-(2-Cyanothiophen-3-yl)-5-(2-pyridyl)-1-(3-pyridyl)-1,2-dihydropyridin-2-one] | – | – | significant anticonvulsant action | –
O=c1c(-c2cccnc2F)cc(-c2ccccn2)cn1-c1cccnc1 [Example 139, 3-(2-Fluoro-3-pyridyl)-5-(2-pyridyl)-1-(3-pyridyl)-1,2-dihydropyridin-2-one] | – | superior effect to the vehicle-administered group | significant anticonvulsant action | –
N#Cc1ccccc1-c1cc(-c2ncccn2)cn(-c2ccccc2)c1=O [Example 164, 3-(2-Cyanophenyl)-1-phenyl-5-(2-pyrimidinyl)-1,2-dihydropyridin-2-one] | – | superior effect to the vehicle-administered group | significant anticonvulsant action | pIC50 [2, 6]: 7.10
N#Cc1ccccc1-c1cc(-c2cnccn2)cn(-c2ccccc2)c1=O [Example 199, 3-(2-Cyanophenyl)-1-phenyl-5-(2-pyrazinyl)-1,2-dihydropyridin-2-one] | – | – | significant anticonvulsant action | –
N#Cc1ccccc1-c1cc(-c2ncccn2)cn(-c2cccnc2)c1=O [Example 261, 3-(2-Cyanophenyl)-1-(3-pyridyl)-5-(2-pyrimidinyl)-1,2-dihydropyridin-2-one] | – | superior effect to the vehicle-administered group | significant anticonvulsant action | –
O=c1c(-c2cccnc2F)cc(-c2ncccn2)cn1-c1ccccc1 [Example 262, 3-(2-Fluoropyridin-3-yl)-1-phenyl-5-(2-pyrimidinyl)-1,2-dihydropyridin-2-one] | – | superior effect to the vehicle-administered group | significant anticonvulsant action | pIC50 [2, 6]: 6.52
N#Cc1ncccc1-c1cc(-c2ncccn2)cn(-c2ccccc2)c1=O [Example 264, 3-(2-Cyanopyridin-3-yl)-1-phenyl-5-(2-pyrimidyl)-1,2-dihydropyridin-2-one] | – | superior effect to the vehicle-administered group | significant anticonvulsant action | –
O=c1c(-c2ccccc2[N+](=O)[O-])cc(-c2ccccn2)cn1-c1ccccc1 [Example 270, 3-(2-Nitrophenyl)-1-phenyl-5-(2-pyridyl)-1,2-dihydropyridin-2-one] | – | – | significant anticonvulsant action | –
N#Cc1ccccc1-c1cc(-c2cccc(N)n2)cn(-c2ccccc2)c1=O [Example 298, 5-(2-Aminopyridin-6-yl)-3-(2-cyanophenyl)-1-phenyl-1,2-dihydropyridin-2-one] | – | – | significant anticonvulsant action | –

— patent publication US7759367B2, “Pharmaceutical compositions and their uses” (Eisai R&D Management Co., Ltd., priority 2001, dated 2010)
